Reference: US7888120B2, “Global regulator of morphogenesis and pathogenicity in dimorphic fungi and uses thereof” (Wisconsin Alumni Research Foundation, priority 2006, dated 2011)

Tested on: B. dermatitidis mutant 4-2-2
Assay type: cell-based, Blastomyces dermatitidis

SMILES	Sensitivity of mutant versus parent strain T53-19
Nc1c(/N=N/c2ccc(-c3ccc(/N=N/c4cc(S(=O)(=O)O)c5ccccc5c4N)cc3)cc2)cc(S(=O)(=O)O)c2ccccc12 [Congo red]	more sensitive than the parent strain
O=S(=O)([O-])c1cc(Nc2nc(Nc3ccccc3)nc(N(CCO)CCO)n2)ccc1/C=C/c1ccc(Nc2nc(Nc3ccccc3)nc(N(CCO)CCO)n2)cc1S(=O)(=O)[O-].[Na+].[Na+] [calcofluor]	more sensitive than the parent strain
